Reference: patent US5463052A, “Method for producing benzylidene derivatives” (Shionogi & Co., Ltd., priority 1993, dated 1995)
pIC50: −log10 of the molar value.

Assays:
Assay type in all cases: cell-based
[1] = test system: production of PGE2 in rat synovial membrane cells; assay: inhibitory activity against the production of PGE2 in rat synovial membrane cells (Rat SVC)
From the text: (§1) These benzylidene derivatives of the formula III can be prepared in a conventional manner, for example, according to the following reaction scheme. [drawing 5] In the reaction scheme above, R is a as defined above and R^3 is hydroxy-protecting group in EP patent application No. 93308369.3 (Publication No. 595546) corresponding to U.S. patent application No. 08/142,146. Thus, hydroxy-protected 3,5-di-tert-butyl-4-hydroxybenzaldehyde 4 is reacted with γ-sultam derivative 2 under a conditions for aldol reaction to obtain an aldol addition compound 5. The compound […], when deprotected and dehydrated in the presence of an acid, gives the objective benzylidene derivative 3' as a mixture of stereoisomers in (E)- and (Z) forms, which is then subjected to resolution, when a given isomer is desired.

[2] = test system: production of LTB4 in rat celiac cells; assay: inhibitory activity against the production of LTB4 in rat celiac cells (Rat PEC)
From the text: as §1

[3] = test system: production of IL-1 in THP-1 cells; assay: inhibitory activity against the production of IL-1 under LPS stimulation in THP-1 cells; conditions: Homo sapiens, read-out: L-1 (THP-1) IC50
From the text: as §1

Row | Compound | pIC50 [1] | pIC50 [2] | pIC50 [3]
1 | CN1CC/C(=C\c2cc(C(C)(C)C)c(O)c(C(C)(C)C)c2)S1(=O)=O [(E), (E)-5-(3,5-di-tert-Butyl-4-hydroxybenzylidene)-2-methyl-1,2-isothiazolidine-1,1-dioxide] | > 9.00 | 5.55 | 4.68
2 | CN1CC/C(=C/c2cc(C(C)(C)C)c(O)c(C(C)(C)C)c2)S1(=O)=O [(Z), 5-(3,5-di-tert-butyl-4-hydroxybenzylidene)-2-methyl-1,2-isothiazolidine-1,1-dioxide] | > 9.00 | 5.74 | 4.54
